In patent US8802597B2, “Herbicidal pyrimidines” (E I du Pont de Nemours and Company, priority 2003, dated 2014):
Where two headings read alike, the source gives them in different places.

Columns and labels:
Assay in all cases: Test C pre/postemergence
Assay type in all cases: in vivo
[1] = system: eastern black nightshade (Solanum ptycanthum); conditions: Solanum, pre-emergence, Preemergence, 250 g ai/ha; scale 0 to 100; read-out: Plant response rating, Nightshade
How it was run: (§1)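 Rating scale 0–100: 0 means no effect, 100 complete control; taken visually 12 to 14 days post-treatment versus controls. Pre- and postemergence greenhouse applications, postemergence at 1- to 4-leaf stage, non-phytotoxic solvent with surfactant as carrier.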

[2] = system: common (oilseed) sunflower (Helianthus annuus); conditions: Helianthus annuus, pre-emergence, Preemergence, read-out: Plant response rating, Sunflower
How it was run: as §1

[3] = system: crabgrass (Digitaria sanguinalis); conditions: Digitaria sanguinalis; for pest or weed control at 31 g/ha: 31 g ai/ha; for pest or weed control at 62 g/ha: 62 g ai/ha; for pest or weed control at 125 g/ha: 125 g ai/ha; for pest or weed control at 250 g/ha: 250 g ai/ha
How it was run: as §1

[4] = system: common ragweed (Ambrosia elatior); conditions: Ambrosia artemisiifolia; for pest or weed control at 31 g/ha: 31 g ai/ha; for pest or weed control at 62 g/ha: 62 g ai/ha; for pest or weed control at 125 g/ha: 125 g ai/ha; for pest or weed control at 250 g/ha: 250 g ai/ha
How it was run: as §1

[5] = system: cocklebur (Xanthium strumarium); conditions: Xanthium strumarium; for pest or weed control at 31 g/ha: 31 g ai/ha; for pest or weed control at 125 g/ha: 125 g ai/ha; for pest or weed control at 250 g/ha: 250 g ai/ha
How it was run: as §1

[6] = system: pigweed (Amaranthus retroflexus); conditions: Amaranthus retroflexus; for pest or weed control at 31 g/ha: 31 g ai/ha; for pest or weed control at 62 g/ha: 62 g ai/ha; for pest or weed control at 125 g/ha: 125 g ai/ha; for pest or weed control at 250 g/ha: 250 g ai/ha
How it was run: as §1

kochia (Kochia scoparia) = conditions: Bassia scoparia; for pest or weed control at 31 g/ha: 31 g ai/ha; for pest or weed control at 62 g/ha: 62 g ai/ha; for pest or weed control at 125 g/ha: 125 g ai/ha; for pest or weed control at 250 g/ha: 250 g ai/ha
How it was run: as §1

[7] = post-emergence, Postemergence, scale 0 to 100 (0 no effect, 100 complete control), read-out: Crabgrass plant response rating
[8] = pre-emergence, Preemergence, scale 0 to 100, 0 no effect, 100 complete control, read-out: Plant response rating, Crabgrass
[9] = pre-emergence, Preemergence, scale 0 to 100, read-out: Plant response rating, Crabgrass
[10] = post-emergence, Postemergence, scale 0 to 100 (0 no effect, 100 complete control), read-out: Ragweed plant response rating
[11] = pre-emergence, Preemergence, scale 0 to 100, 0 no effect, 100 complete control, read-out: Plant response rating, Ragweed
[12] = pre-emergence, Preemergence, scale 0 to 100, read-out: Plant response rating, Ragweed
[13] = pre-emergence, Preemergence, scale 0 to 100, read-out: Plant response rating, Cocklebur
[14] = post-emergence, Postemergence, scale 0 to 100 (0 no effect, 100 complete control), read-out: Pigweed plant response rating
[15] = pre-emergence, Preemergence, scale 0 to 100, 0 no effect, 100 complete control, read-out: Plant response rating, Pigweed
[16] = pre-emergence, Preemergence, scale 0 to 100, read-out: Plant response rating, Pigweed
[17] = post-emergence, Postemergence, scale 0 to 100 (0 no effect, 100 complete control), read-out: Kochia plant response rating
[18] = pre-emergence, Preemergence, scale 0 to 100, 0 no effect, 100 complete control, read-out: Plant response rating, Kochia
[19] = pre-emergence, Preemergence, scale 0 to 100, read-out: Plant response rating, Kochia

COC(=O)c1nc(C2CC2)nc(N)c1Br [Compound 2, methyl 6-amino-5-bromo-2-cyclopropyl-4-pyrimidinecarboxylate]
55%: pest or weed control at 62 g/ha [3, 7]
0%: pest or weed control at 31 g/ha [3, 8] | pest or weed control at 62 g/ha [3, 8] | pest or weed control at 125 g/ha [3, 9] | pest or weed control at 31 g/ha [4, 11] | pest or weed control at 62 g/ha [4, 11] | pest or weed control at 125 g/ha [4, 12] | pest or weed control at 250 g/ha [4, 12]
70%: pest or weed control at 250 g/ha ([3]; post-emergence, Postemergence, scale 0 to 100, read-out: Plant response rating, Crabgrass)
90%: pest or weed control at 125 g/ha [4, 10] | pest or weed control at 31 g/ha [6, 15] | pest or weed control at 62 g/ha (kochia (Kochia scoparia); [18])
20%: pest or weed control at 31 g/ha ([2]; 31 g ai/ha, scale 0 to 100, 0 no effect, 100 complete control)
65%: pest or weed control at 31 g/ha ([4]; post-emergence, Postemergence, read-out: Plant response rating (scale of 0 to 100), Ragweed) | pest or weed control at 31 g/ha ([5]; post-emergence, Postemergence, read-out: Plant response rating (scale of 0 to 100), Cocklebur) | pest or weed control at 31 g/ha ([6]; post-emergence, Postemergence, read-out: Plant response rating (scale of 0 to 100), Pigweed)
60%: pest or weed control at 125 g/ha [3, 7] | pest or weed control at 31 g/ha ([5]; pre-emergence, Preemergence, scale 0 to 100, 0 no effect, 100 complete control, read-out: Plant response rating, Cocklebur)
95%: pest or weed control at 250 g/ha ([4]; post-emergence, Postemergence, scale 0 to 100, read-out: Plant response rating, Ragweed) | pest or weed control at 125 g/ha [6, 14] | pest or weed control at 62 g/ha [6, 15] | pest or weed control at 125 g/ha [6, 16] | pest or weed control at 62 g/ha (kochia (Kochia scoparia); [17]) | pest or weed control at 125 g/ha (kochia (Kochia scoparia); [17]) | pest or weed control at 125 g/ha (kochia (Kochia scoparia); [19])
50%: pest or weed control at 250 g/ha [3, 9]
80%: pest or weed control at 125 g/ha [5, 13] | pest or weed control at 62 g/ha [6, 14]
40%: pest or weed control at 31 g/ha ([3]; post-emergence, Postemergence, read-out: Plant response rating (scale of 0 to 100), Crabgrass)
85%: pest or weed control at 62 g/ha [4, 10] | pest or weed control at 125 g/ha ([5]; post-emergence, Postemergence, scale 0 to 100 (0 no effect, 100 complete control), read-out: Cocklebur plant response rating) | pest or weed control at 250 g/ha ([5]; post-emergence, Postemergence, scale 0 to 100, read-out: Plant response rating, Cocklebur) | pest or weed control at 31 g/ha (kochia (Kochia scoparia); post-emergence, Postemergence, read-out: Plant response rating (scale of 0 to 100), Kochia)
100%: pest or weed control at 250 g/ha [1] | pest or weed control at 62 g/ha ([2]; 62 g ai/ha, scale 0 to 100, 0 no effect, 100 complete control) | pest or weed control at 125 g/ha ([2]; 125 g ai/ha, scale 0 to 100) | pest or weed control at 250 g/ha ([2]; 250 g ai/ha, scale 0 to 100) | pest or weed control at 250 g/ha [5, 13] | pest or weed control at 250 g/ha ([6]; post-emergence, Postemergence, scale 0 to 100, read-out: Plant response rating, Pigweed) | pest or weed control at 250 g/ha [6, 16] | pest or weed control at 250 g/ha (kochia (Kochia scoparia); post-emergence, Postemergence, scale 0 to 100, read-out: Plant response rating, Kochia) | pest or weed control at 250 g/ha (kochia (Kochia scoparia); [19])
75%: pest or weed control at 62 g/ha ([5]; post-emergence, Postemergence, 62 g ai/ha, scale 0 to 100 (0 no effect, 100 complete control), read-out: Cocklebur plant response rating) | pest or weed control at 31 g/ha (kochia (Kochia scoparia); [18])
